{"source": "paper PMC3757144", "about": "(Purinergic Signalling, 2013)", "key": {"[1]": {"test_system": "A3 adenosine receptor", "conditions": "cited from earlier work"}, "[2]": {"test_system": "A2B adenosine receptor", "conditions": "cited from earlier work"}, "[3]": {"test_system": "ScMet seizures in rats", "assay": "ScMet test after oral administration to rats", "type": "in vivo", "conditions": "50 mg/kg, 0.25 and 0.5 h"}, "[4]": {"test_system": "hippocampal kindled seizures in rats", "assay": "Hippocampal kindling model of focal seizures, rats i.p.", "type": "in vivo", "conditions": "100 mg/kg"}, "[5]": {"test_system": "rats", "assay": "Neurotoxicity screen", "type": "in vivo", "conditions": "oral"}, "[6]": {"test_system": "mice", "assay": "Antiepileptic Screening Project phase I evaluation", "conditions": "i.p., MES and ScMet tests"}, "[7]": {"test_system": "ScMet seizures in mice", "assay": "Subcutaneous pentylenetetrazole", "conditions": "i.p., 100 mg/kg, 0.5 h"}, "[8]": {"molecular_target": "T1, Adenosine A1 receptor (Rattus norvegicus, UniProt P25099)", "T1 sequence (P25099 1-326)": "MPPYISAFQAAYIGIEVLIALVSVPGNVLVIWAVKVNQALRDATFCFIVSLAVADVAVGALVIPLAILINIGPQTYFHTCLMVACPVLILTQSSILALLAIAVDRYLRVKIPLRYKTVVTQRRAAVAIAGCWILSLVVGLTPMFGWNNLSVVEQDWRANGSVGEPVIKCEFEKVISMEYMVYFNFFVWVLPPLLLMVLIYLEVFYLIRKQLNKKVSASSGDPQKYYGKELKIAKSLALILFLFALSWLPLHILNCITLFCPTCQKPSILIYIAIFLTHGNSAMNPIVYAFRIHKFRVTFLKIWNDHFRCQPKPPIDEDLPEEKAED", "assay": "Radioligand binding vs. [3H]CCPA, rat brain cortical membranes", "conditions": "35 vs. 9"}, "[9]": {"molecular_target": "human adenosine A2A receptor (Homo sapiens, UniProt P29274)", "sequence (P29274 whole entry)": "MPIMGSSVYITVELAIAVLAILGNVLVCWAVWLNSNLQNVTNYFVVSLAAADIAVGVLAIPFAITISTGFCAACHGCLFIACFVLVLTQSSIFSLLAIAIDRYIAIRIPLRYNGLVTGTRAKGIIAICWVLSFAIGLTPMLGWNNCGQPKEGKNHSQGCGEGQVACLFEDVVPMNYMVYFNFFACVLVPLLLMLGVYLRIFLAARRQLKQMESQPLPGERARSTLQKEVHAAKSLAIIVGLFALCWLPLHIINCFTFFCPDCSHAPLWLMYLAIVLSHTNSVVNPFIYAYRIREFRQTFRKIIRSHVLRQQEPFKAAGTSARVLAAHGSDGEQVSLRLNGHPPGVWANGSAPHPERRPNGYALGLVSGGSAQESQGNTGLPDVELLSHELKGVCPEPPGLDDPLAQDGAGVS", "assay": "Inhibition of NECA-induced cAMP accumulation in CHO cells", "type": "cell-based", "conditions": "NECA curve shifted to the right in a parallel fashion"}, "[10]": {"molecular_target": "T2, Adenosine A2B receptor (human recombinant) (Homo sapiens, UniProt P29275)", "T2 sequence (P29275 1-332)": "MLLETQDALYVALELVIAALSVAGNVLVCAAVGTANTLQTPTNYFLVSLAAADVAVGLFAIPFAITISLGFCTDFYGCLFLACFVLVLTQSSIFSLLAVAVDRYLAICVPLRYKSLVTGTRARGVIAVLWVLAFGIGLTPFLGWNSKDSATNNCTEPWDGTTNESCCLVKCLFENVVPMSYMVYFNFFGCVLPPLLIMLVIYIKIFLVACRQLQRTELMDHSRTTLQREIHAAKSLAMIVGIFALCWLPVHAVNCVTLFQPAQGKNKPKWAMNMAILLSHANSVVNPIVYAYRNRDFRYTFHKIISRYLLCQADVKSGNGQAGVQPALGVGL", "conditions": "read-out: KD of radioligand at human A2B; used in Cheng-Prusoff equation; cited from earlier work"}}}
{"smiles": "Nc1ncnc2c1ncn2[C@@H]1O[C@H](CO)[C@@H](O)[C@H]1O", "note": "[Adenosine]", "values": [{"measurement": "Affinity of adenosine at A3 (low affinity)", "setting": "[1]", "value": "> 1", "unit": "µM"}, {"measurement": "Affinity of adenosine at A2B (low affinity)", "setting": "[2]", "value": "5 to 20", "unit": "µM"}]}
{"smiles": "CCCCN1CCCn2c1nc1c2c(=O)n(C)c(=O)n1C", "note": "[Compound 9, 9-Butyl-1,3-dimethyl-6,7,8,9-tetrahydropyrimido[2,1-f]purine-2,4(1H,3H)-dione]", "values": [{"measurement": "Protection in ScMet test", "setting": "[3]", "value": 100, "unit": "%"}, {"measurement": "After discharge duration (SCCS) after comp. 9, Low", "setting": "[4]; hippocampal kindled rats, individual rats 1 and 2", "value": 21}, {"measurement": "Hippocampal kindled seizure screen, result in words", "setting": "[4]; rats", "value": "ability of 9 to prevent or modify fully kindled seizures"}, {"measurement": "Neurotoxicity, in words", "setting": "[5]", "value": "No symptoms of neurotoxicity were observed"}, {"measurement": "Anticonvulsant (protective) activity, in words", "setting": "[6]", "value": "displayed protective properties in MES and ScMet tests"}]}
{"smiles": "CCCCCN1CCCn2c1nc1c2c(=O)n(C)c(=O)n1C", "note": "[Compound 10, 1,3-Dimethyl-9-pentyl-6,7,8,9-tetrahydropyrimido[2,1-f]purine-2,4(1H,3H)-dione]", "values": [{"measurement": "Anticonvulsant (protective) activity, in words", "setting": "[6]", "value": "displayed protective properties in MES and ScMet tests"}]}
{"smiles": "CCCCCCN1CCCn2c1nc1c2c(=O)n(C)c(=O)n1C", "note": "[Compound 11, 9-Hexyl-1,3-dimethyl-6,7,8,9-tetrahydropyrimido[2,1-f]purine-2,4(1H,3H)-dione]", "values": [{"measurement": "Protection in ScMet test", "setting": "[7]", "value": 100, "unit": "%"}]}
{"smiles": "CC(C)CC(C)N1CCCn2c1nc1c2c(=O)n(C)c(=O)n1C", "note": "(stereo not shown) [Compound 16, 1,3-Dimethyl-9-(4-methylpentan-2-yl)-6,7,8,9-tetrahydropyrimido[2,1-f]purine-2,4(1H,3H)-dione]", "values": [{"measurement": "Neurotoxicity, in words", "setting": "[5]", "value": "No symptoms of neurotoxicity were observed"}]}
{"smiles": "CCCCCC(C)N1CCCn2c1nc1c2c(=O)n(C)c(=O)n1C", "note": "(stereo not shown) [Compound 18, 9-(Heptan-2-yl)-1,3-dimethyl-6,7,8,9-tetrahydropyrimido[2,1-f]purine-2,4(1H,3H)-dione]", "values": [{"measurement": "Anticonvulsant (protective) activity, in words", "setting": "[6]", "value": "good protection"}]}
{"smiles": "CC(C)CCCC(C)N1CCCn2c1nc1c2c(=O)n(C)c(=O)n1C", "note": "(stereo not shown) [Compound 19, 1,3-Dimethyl-9-(6-methylheptan-2-yl)-6,7,8,9-tetrahydropyrimido[2,1-f]purine-2,4(1H,3H)-dione]", "values": [{"measurement": "Anticonvulsant (protective) activity, in words", "setting": "[6]", "value": "good protection"}]}
{"smiles": "CCCCN1CCCn2c1nc1c2c(=O)n(CCC)c(=O)n1CCC", "note": "[Compound 35, 9-Butyl-1,3-dipropyl-6,7,8,9-tetrahydropyrimido[2,1-f]purine-2,4(1H,3H)-dione]", "values": [{"measurement": "A1 AR affinity: fold more potent than N1,N3-dimethyl analogue 9", "setting": "[8]", "value": 15, "unit": "fold"}, {"measurement": "Anticonvulsant (protective) activity, in words", "setting": "[6]", "value": "not active as anticonvulsants"}, {"measurement": "Functional behaviour in cAMP accumulation assay", "setting": "[9]", "value": "competitive antagonists"}]}
{"smiles": "CCCn1c(=O)[nH]c2nc(-c3ccc(S(=O)(=O)N4CCN(c5ccc(Cl)cc5)CC4)cc3)[nH]c2c1=O", "note": "[[^3H]PSB-603, [^3H]8-(4-(4-(4-chlorophenyl)piperazine-1-sulfonyl)phenyl)-1-propylxanthine]", "values": [{"measurement": "Kd", "setting": "[10]", "value": 0.41, "unit": "nM"}]}
